# Data reported in ChEMBL document CHEMBL1201862, “PubChem BioAssay data set” (2004).
#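 48-hour exposure; five concentrations; linearly interpolated endpoints. Here, GI50 denotes the concentration required for 50% inhibition of growth.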 Activity calls are given as the source filed them. Cut-off read from the data, not from the text of the source: active = GI50 up to about 1.1 µM and inactive = higher.
# Tests used:
# Assay in all cases: NCI-60 cell line screen, 48 h
# [1] = test system: IGROV-1
# [2] = test system: UACC-62
# [3] = test system: OVCAR-5
# [4] = test system: NCI/ADR-RES
# [5] = test system: K562
# [6] = test system: U-251
# [7] = test system: T47D
# [8] = test system: EKVX
# [9] = test system: OVCAR-3
# [10] = test system: SW-620
# [11] = test system: OVCAR-8
# [12] = test system: UACC-257
# [13] = test system: LOX IMVI
# [14] = test system: HL-60
# [15] = test system: CCRF-CEM
# [16] = test system: SN12C
# [17] = test system: SF-295
# [18] = test system: TK-10
# [19] = test system: HCT-116
# [20] = test system: OVCAR-4
Structure (SMILES),GI50 [1],GI50 [2],GI50 [3],GI50 [4],GI50 [5],GI50 [6],GI50 [7],GI50 [8],GI50 [9],GI50 [10],GI50 [11],GI50 [12],GI50 [13],GI50 [14],GI50 [15],GI50 [16],GI50 [17],GI50 [18],GI50 [19],GI50 [20]
O=[N+]([O-])c1ccc2sc(/C=N/c3cnccn3)cc2c1,58.3 µM (inactive),17.1 µM (inactive),36.4 µM (inactive),70.3 µM (inactive),21.4 µM (inactive),20.9 µM (inactive),0.714 µM (active),39.1 µM (inactive),23.7 µM (inactive),25 µM (inactive),45.4 µM (inactive),27.8 µM (inactive),22.8 µM (inactive),14.2 µM (inactive),13.7 µM (inactive),45.6 µM (inactive),35.4 µM (inactive),30.3 µM (inactive),37 µM (inactive),
c1ccc2c(c1)Sc1ccccc1N2CCCN1c2ccccc2Sc2ccccc21,> 100 µM (inactive),> 100 µM (inactive),> 100 µM (inactive),69.8 µM (inactive),> 100 µM (inactive),45.9 µM (inactive),> 100 µM (inactive),> 100 µM (inactive),63.5 µM (inactive),> 100 µM (inactive),54.2 µM (inactive),> 100 µM (inactive),> 100 µM (inactive),,,91.6 µM (inactive),> 100 µM (inactive),> 100 µM (inactive),55.5 µM (inactive),36.1 µM (inactive)
COc1ccc2c(c1)CCCN1CCc3cc(OC)c(OC)cc3C21 (stereo unspecified),> 100 µM (inactive),> 100 µM (inactive),> 100 µM (inactive),21.8 µM (inactive),61.7 µM (inactive),> 100 µM (inactive),> 100 µM (inactive),> 100 µM (inactive),> 100 µM (inactive),> 100 µM (inactive),> 100 µM (inactive),> 100 µM (inactive),77.1 µM (inactive),41.1 µM (inactive),> 100 µM (inactive),> 100 µM (inactive),46.5 µM (inactive),> 100 µM (inactive),76 µM (inactive),
CCOC(=O)CC(=O)Nc1cccc2sc3ncccc3c(=O)c12,> 10 µM (inactive),31.7 µM (inactive),20.3 µM (inactive),36.8 µM (inactive),20.6 µM (inactive),32.6 µM (inactive),3.95 µM (inactive),65.8 µM (inactive),34.4 µM (inactive),> 100 µM (inactive),52.4 µM (inactive),> 100 µM (inactive),19 µM (inactive),,10.8 µM (inactive),51.8 µM (inactive),43.5 µM (inactive),34.4 µM (inactive),46 µM (inactive),83.2 µM (inactive)
CN1CN(c2ccccc2)C2(CCN(C3Nc4ccccc4O3)CC2)C1=O (stereo unspecified),22.9 µM (inactive),16.1 µM (inactive),17.6 µM (inactive),20.8 µM (inactive),18.5 µM (inactive),18.2 µM (inactive),22.2 µM (inactive),,17.2 µM (inactive),33.7 µM (inactive),26.2 µM (inactive),16.7 µM (inactive),13.6 µM (inactive),12.5 µM (inactive),13.2 µM (inactive),19.2 µM (inactive),16.6 µM (inactive),11.1 µM (inactive),16.2 µM (inactive),
COc1ccc(C(=O)/C=C2\c3ccccc3C(=O)N2C)cc1,28 µM (inactive),41.1 µM (inactive),> 100 µM (inactive),38 µM (inactive),44.1 µM (inactive),74.8 µM (inactive),27 µM (inactive),26.8 µM (inactive),98.2 µM (inactive),> 100 µM (inactive),64.4 µM (inactive),31.3 µM (inactive),46.8 µM (inactive),,44.8 µM (inactive),58.5 µM (inactive),71 µM (inactive),31.2 µM (inactive),59.3 µM (inactive),42.6 µM (inactive)
Cc1ccc(/N=N/c2c(O)ccc3ccccc23)cc1,> 100 µM (inactive),> 100 µM (inactive),> 100 µM (inactive),> 100 µM (inactive),> 10 µM (inactive),53.6 µM (inactive),> 100 µM (inactive),> 100 µM (inactive),32.4 µM (inactive),63.4 µM (inactive),> 100 µM (inactive),> 100 µM (inactive),> 100 µM (inactive),,27.1 µM (inactive),> 100 µM (inactive),> 100 µM (inactive),> 100 µM (inactive),> 100 µM (inactive),> 100 µM (inactive)
